From patent US8586768B2, “Design, synthesis and functional characterization of rottlerin analogs” (priority 2009, dated 2013)
Like-named read-outs stand apart in the source and are kept apart here.

Columns and labels:
[1] = Activity of simple rottlerin analogs compared with rottlerin (test not named)
Procedure: Design and Synthesis of Novel Rottlerin Analogs. Since Rottlerin has proven to be a difficult target to make synthetically, analogs have been developed and tested in an attempt to localize the region of activity and improve that activity. Initially, simple analogs of Rottlerin itself, obtained from CalBioChem (La Jolla, Calif., Cat #557370), were prepared and analyzed. Two compounds gave important results, one representing a simplified methylene linkage present in the parent compound (PK103), and the other (PK203) came from a simple bromination of natural Rottlerin.

[2] = test system: N27 cells; assay: MPP+-induced DNA fragmentation in N27 cells; format: cell-based, rat; details: co-treated with 3 μM
Description: To determine whether PK analogs are neuroprotective against MPP+-induced increases in caspase-3 and DNA fragmentation, their effects on MPP+-induced increases in caspase-3 activity and DNA fragmentation, markers of apoptotic cell death, were examined. All three analogs PK101-103 protected N27 cells from MPP+-induced caspase-3 activation and DNA fragmentation. […] (**p<0.01 and ***p<0.001, compared to vehicle control; #p<0.05, ##p<0.01, compared to MPP+ treatment).

[3] = test system: N27 cells; details: 300 μM MPP+ 24 hr
Procedure: (§1) At the end of the treatment, cytotoxicity was measured using the Sytox cell death assay in a 96-well fluorescence microplate reader.
A second generation of rottlerin analogs was further utilized for neuroprotection studies, as shown as PK201-203 in FIG. 2.
as §1
The analogs were tested in an N27 dopaminergic cell model for their neuroprotective properties. […] At the end of the treatment, cytotoxicity was measured using the Sytox cell death assay in a 96-well fluorescence microplate reader.
(§2) Rat mesencephalic dopaminergic clonal cells (N27) were used and maintained in RPMI 1640 complete medium supplemented with 10% Fetal Bovine Serum, 1% […] and 1% Penicillin/Streptomycin in a 37° C. incubator with 5% CO2. After 4-6 days in culture, the cells were used for the experiments.
(§3) N27 cells were exposed to MPP^+ for 24 hr in the presence or absence of PK analogs in the dose range of 1-30 μM.

[4] = test system: C57 black mice; assay: Acute MPTP mouse model of PD, locomotor activity (VersaMax Analyzer); format: in vivo; details: MPTP 4 x 18 mg/kg i.p.; 10 mg/kg oral gavage, 7 days
Procedure: (§4) Lead PK analogs protect against behavioral deficits and neurochemical loss in a preclinical MPTP-induced mouse model of PD. After characterizing the neuroprotective effect of PK analogs in cell culture models of PD, as a proof of principle, preliminary evaluation of two lead PK analogs in an acute MPTP animal model of PD were conducted. C57 black mice received 4 doses of MPTP at 18 mg/kg i.p at 2 hr interval. Oral administration of lead PK analogs (10 mg/kg body wt, oral gavage) was started 1 day before MPTP insult and continued for 7 days. 1% DMSO was used as the vehicle control. Locomotor activity was measured using the VersaMax Analyzer 1-2 days before sacrificing the mice. Mice were sacrificed after 7 days of MPTP injection. (n=5). (**p<0.01: PK analogs versus MPTP).

[5] = test system: C57 black mice; assay: Acute MPTP mouse model of PD, striatal dopamine and DOPAC; format: in vivo; details: MPTP 4 x 18 mg/kg i.p.; 10 mg/kg oral gavage, 7 days
Procedure: as §4

[6] = test system: caspase-3 activity in N27 cells; assay: MPP+-induced caspase-3 activity assay in N27 cells; format: cell-based, rat; details: for relative protection against MPP+-induced caspase-3 activity within the generation / blockage of MPP+-induced caspase-3 activity: 300 μM MPP+ 24 hr; for relative protection against MPP+-induced caspase-3 activity within the generation: 0.3-10 μM; for blockage of MPP+-induced caspase-3 activity: co-treated with 0.3, 1, 3 and 10 μM
Procedure: To determine whether PK analogs are neuroprotective against MPP+-induced increases in caspase-3 and DNA fragmentation, their effects on MPP+-induced increases in caspase-3 activity and DNA fragmentation, markers of apoptotic cell death, were examined.
The second generation PK analogs were further tested to determine whether the analogs are neuroprotective against MPP+-induced apoptotic cell death. The effects on MPP+-induced increases in caspase-3 enzymatic activity were analyzed, a marker of apoptotic cell death. […] At the end of the treatment, cytotoxicity was measured using the caspase-3 assay in a 96-well fluorescence microplate reader.
The third generation PK analogs were further tested to determine whether the analogs are neuroprotective against MPP+-induced apoptotic cell death. The effects on MPP+-induced increases in caspase-3 enzymatic activity were examined, a marker of apoptotic cell death. N27 cells were exposed to 300 μM MPP+ for 24 hr in the presence or absence of three different PK compounds in the dose range of 0.3-10 μM. At the end of the treatment, cytotoxicity was measured using the caspase-3 assay in a 96-well fluorescence microplate reader.
as §2, §3

[7] = LC-MS-MS detection in mouse brain after oral administration; format: in vivo
Description: Bioavailability of Lead PK analogs. LC-MS-MS detection of lead PK analogs PK202 and PK8302 analog in mouse brain was completed.

[8] = test system: mouse primary mesencephalic neuronal cultures; assay: 3H-dopamine uptake assay after MPP+ exposure; format: cell-based; details: 10 μM MPP+, 3 μM compound, 48 h
Procedure: Lead PK analogs protect against MPP^+-induced loss of TH+ neurons in primary mesencephalic cultures. To determine if lead PK analogs protect against degeneration of nigral dopaminergic neurons resulting from MPP+ neurotoxicity, mouse primary mesencephalic neuronal cultures (prepared from E16-18-day-old mice embryos) were exposed to 10 μM MPP^+ in the presence or absence of 3 μM of lead PK analogs, PK103, PK202, PK302 and parent compound rottlerin for 48 h, and then assessed the viability of dopaminergic neurons using the ^3H-dopamine uptake assay. (***p<0.005 (vehicle versus MPTP. ##p<0.01 (PK analogs versus MPTP)). Mazindol, a dopamine reuptake inhibitor, was used as a positive control for the assay.

[9] = biological target: PKCδ (Homo sapiens, UniProt Q05655); details: background statement; cited from earlier work
PKCδ, sequence (Q05655 whole entry): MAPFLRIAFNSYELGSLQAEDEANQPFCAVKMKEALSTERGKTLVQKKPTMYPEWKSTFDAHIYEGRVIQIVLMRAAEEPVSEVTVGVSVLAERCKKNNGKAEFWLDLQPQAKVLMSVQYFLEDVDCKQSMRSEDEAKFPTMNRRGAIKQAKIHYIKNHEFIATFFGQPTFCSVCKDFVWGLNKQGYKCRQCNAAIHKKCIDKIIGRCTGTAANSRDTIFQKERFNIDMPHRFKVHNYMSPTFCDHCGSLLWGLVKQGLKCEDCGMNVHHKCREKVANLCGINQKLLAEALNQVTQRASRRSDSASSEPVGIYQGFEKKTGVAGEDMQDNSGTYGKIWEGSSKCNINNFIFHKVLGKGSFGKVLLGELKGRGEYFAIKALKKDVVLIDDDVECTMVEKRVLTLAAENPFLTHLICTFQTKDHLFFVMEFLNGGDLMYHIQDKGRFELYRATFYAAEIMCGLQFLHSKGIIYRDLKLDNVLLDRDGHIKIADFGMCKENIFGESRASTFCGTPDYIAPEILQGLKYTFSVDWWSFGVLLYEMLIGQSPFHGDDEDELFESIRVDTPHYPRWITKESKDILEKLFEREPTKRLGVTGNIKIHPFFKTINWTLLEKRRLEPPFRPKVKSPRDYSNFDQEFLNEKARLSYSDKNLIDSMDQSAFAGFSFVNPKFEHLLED

[10] = co-treated with 0.3, 1 and 3 μM
[11] = mouse brain, oral administration (oral gavage)

| Compound | activity compared with Rottlerin [1] | blockage of MPP+-induced DNA fragmentation [2] | blockage of MPP+-induced cytotoxicity ([3]; co-treated with 3 μM) | horizontal locomotor deficits [4] | vertical locomotor deficits [4] | striatal DOPAC depletion [5] | striatal dopamine depletion [5] | blockage of MPP+-induced increases in caspase-3 activation ([6]; co-treated with 3 μM) | relative potency against MPP+-induced cytotoxic cell death within the generation [3] | blockage of MPP+-induced cytotoxicity [3, 10] | relative protection against MPP+-induced caspase-3 activity within the generation [6] | blockage of MPP+-induced caspase-3 activity [6] | level detected in substantia nigra by LC-MS-MS [7, 11] | level detected in substantia nigra by LC-MS-MS ([7]; mouse, in vivo, po) | protection against MPP+-induced loss of dopaminergic neurons (dopamine uptake) [8] | IC50 [9] [µM] |
| --- | --- | --- | --- | --- | --- | --- | --- | --- | --- | --- | --- | --- | --- | --- | --- | --- |
| Oc1cc(O)c(Cc2c(O)cc(O)cc2O)c(O)c1 [PK103] | less activity than Rottlerin | significant blockage | significant blockage | significantly improved | significantly improved | attenuated | attenuated | significant blockage |  |  |  |  |  |  |  |  |
| CC(=O)c1c(O)c(C)c(O)c(Cc2c(O)c3c(c4c2OC(c2ccccc2)CC4=O)OC(C)(C)C=C3)c1O (centres unmarked) [PK202] |  |  |  | significantly improved | significantly improved | attenuated | attenuated |  | most potent inhibitor | significant blockage | more effectively protects | dose-dependent blockage | Significant amounts |  |  |  |
| CC1(C)C=Cc2c(O)cc(O)c(C(=O)/C=C/c3ccccc3)c2O1 [PK302] |  |  |  | significantly improved | significantly improved | attenuated | attenuated |  | more potent inhibitors than PK301 | significant blockage | more effectively protect | significant blockage |  | Significant amounts |  |  |
| CC(=O)c1c(O)c(C)c(O)c(Cc2c(O)c3c(c(C(=O)/C=C/c4ccccc4)c2O)OC(C)(C)C=C3)c1O [Rottlerin, (E)-1-[6-[(3-acetyl-2,4,6-trihydroxy-5-methylphenyl)methyl]-5,7-dihydroxy-2,2-dimethylchromen-8-yl]-3-phenylprop-2-en-1-one] |  |  |  |  |  |  |  |  |  |  |  |  | Significant levels |  | protected | 3 to 6 |
